Source: ChEMBL document CHEMBL1147696, “Discovery of bitriazolyl compounds as novel antiviral candidates for combating the tobacco mosaic virus” (2006)

What was measured:
Assay type in all cases: functional
Tobacco mosaic virus [1] = experiment: Antiviral activity against TMV; design: concentration or dose not given beside the values
Tobacco mosaic virus [2] = experiment: Induction of systemic acquired resistance of tobacco plant against TMV at 100 ug/ml by leaf spray treatment
Tobacco mosaic virus [3] = experiment: Induction of systemic acquired resistance of tobacco plant against TMV at 100 ug/ml by soil treatment

Row | SMILES | Activity (Tobacco mosaic virus [1]) | Activity (Tobacco mosaic virus [2]) | Activity (Tobacco mosaic virus [3])
1 | COc1ccc(-c2cn(-c3n[nH]c(C(N)=O)n3)nn2)cc1 | 0% |  | 
2 | NC(=O)c1n[nH]c(-n2cc(-c3ccccc3)nn2)n1 | 0% |  | 
3 | COC(=O)c1n[nH]c(-n2cc(-c3ccc(F)cc3)nn2)n1 | 12% |  | 
4 | CCCCCc1ccc(-c2cn(-c3n[nH]c(C(=O)OC)n3)nn2)cc1 | 23% |  | 
5 | COC(=O)c1n[nH]c(-n2cc(-c3ccc(C)cc3)nn2)n1 | 10% |  | 
6 | NC(=O)c1n[nH]c(-n2cc(C3=CCCCC3)nn2)n1 | 7% |  | 
7 | COC(=O)c1n[nH]c(-n2cc(C3(O)CCCCC3)nn2)n1 | 17% |  | 
8 | COC(=O)c1n[nH]c(-n2cc(COC(C)=O)nn2)n1 | 36% |  | 
9 | COC(=O)c1n[nH]c(-n2cc(C3(O)CCCC3)nn2)n1 | 10% |  | 
10 | NC(=O)c1n[nH]c(-n2cc(C3(O)CCCC3)nn2)n1 | 13% |  | 
11 | COC(=O)c1n[nH]c(-n2cc(-c3ccccc3)nn2)n1 | 63% | 10% | 10%
12 | CCOC(=O)c1cn(-c2n[nH]c(C(=O)OC)n2)nn1 | 20% |  | 
13 | NC(=O)c1cn(-c2n[nH]c(C(N)=O)n2)nn1 | 0% |  | 
14 | CCCCCc1ccc(-c2cn(-c3n[nH]c(C(N)=O)n3)nn2)cc1 | 28% |  | 
15 | O=C1NCNC(=O)N1 | 45% |  | 
16 | NC(=O)c1n[nH]c(-n2cc(CO)nn2)n1 | 8% |  | 
17 | NC(=O)c1n[nH]c(-n2cc(-c3ccc(F)cc3)nn2)n1 | 0% |  | 
18 | COC(=O)c1n[nH]c(-n2cc(-c3ccc(OC)cc3)nn2)n1 | 15% |  | 
19 | Cc1ccc(-c2cn(-c3n[nH]c(C(N)=O)n3)nn2)cc1 | 6% |  | 
20 | NC(=O)c1n[nH]c(-n2cc(C3(O)CCCCC3)nn2)n1 | 0% |  | 
21 | COC(=O)c1n[nH]c(-n2cc(C3=CCCCC3)nn2)n1 | 75% | 0% | 0%
22 | CSC(=O)c1cccc2nnsc12 [ACIBENZOLAR-S-METHYL] |  | 95% | 96%
23 | NC(=O)c1ncn([C@@H]2O[C@H](CO)[C@@H](O)[C@H]2O)n1 [RIBAVIRIN] | 49% |  | 
